Measurements published in patent US6586410B1, “Lipid-nucleic acid particles prepared via a hydrophobic lipid-nucleic acid complex intermediate and use for gene transfer” (Inex Pharmaceuticals Corporation, priority 1995, dated 2003).

Legend:
[1] = Plasmid encapsulation (protection from external medium) by anion exchange chromatography on DEAE Sepharose CL-6B; assay type: physicochemical; conditions: for cationic lipid concentration required for optimal plasmid encapsulation: detergent dialysis
Description: The extent of encapsulation or protection of the plasmid from the external medium was assessed by anion exchange chromatography as follows: a 50 μl aliquot of each sample was eluted on a DEAE Sepharose CL-6B column and the fractions were assessed for both ^3H-plasmid and ^14C-lipid by scintillation counting. Any exposed negative charges, such as those present on DNA molecules will bind-to the anion exchange column and will not elute with the ^14C-lipid. DNA which has its negative charge, “protected” or non-exposed will not bind to the anion exchange resin and will elute with the ^14C-lipid. Alternatively, plasmid DNA was measured using the indicator dye, PicoGreen®.

plasmid DNA [2] = experiment: Bligh and Dyer extraction: DNA partitioning between aqueous and organic phase; assay type: physicochemical; conditions: for amount of lipid for complete partitioning of the DNA into the organic phase: preformed liposomes; for DNA partitioning into the organic phase versus charge ratio: polyvalent lipids compared with monovalent cationic lipids; for DNA partitioning: nonlipid cations, charge ratios up to and in excess of 4
Description: […] This mixture of solvents and water is equivalent to that used in the preparation of a Bligh and Dyer monophase (Bligh and Dyer, Can. J. Biochem. Physiol. 37:91-97 (1959)). Typically, DNA was added to achieve a final concentration of […] in solution while lipid was added at various concentrations. Trace quantities of 3H-plasmid DNA were added such that 2000 to 4000 dpm were present per 10 g unlabelled DNA. The reaction mixtures were incubated at room temperature for 30 min in a total volume of 1 mL. Subsequently the Bligh and Dyer monophase was partitioned into a two phase system by the addition of water and chloroform (250 L each). The samples were mixed by vortexing and the separation of the lower organic and upper aqueous phases was facilitated by centrifugation at 2000 rpm for 5 min at room temperature. The aqueous phase was removed and retained for scintillation counting. The solvent phase was dried using a stream of nitrogen gas, and the resulting film was resuspended in SOLVABLE solubilizing agent (Dupont NEN, Boston, Mass., USA) and incubated at 50° C. for 1 hour. […] PICOFLUOR scintillant (Canberra Packard, Meriden, Conn., USA) was added to all samples and the radioactivity (3H-DNA) was measured using a Packard TR 1900 Scintillation Counter (Canberra Packard).
Assays evaluating the stability of charge-neutralized, lipid-nucleic acid complexes were done in the presence of varying concentration of NaCl and OGP. Briefly, cationic lipid-nucleic acid complexes were prepared under conditions where 100% of the plasmid was expected to be recovered in the organic phase. NaCl or OGP was then added to the monophase system and incubations carried out at room temperature for 15 min. Bligh and Dyer extractions were performed as described above. The binding of calcium, L-lysine, and poly-L-lysine to the plasmid was evaluated using a modification of the above procedure. These nonlipid cationic materials were dissolved at various concentrations in sterile distilled water and incubated with the plasmid ([…] final concentration in water) at room temperature for 30 min in a final volume of 250 L. Reaction volumes were adjusted to 1 mL with chloroform:methanol (1:2.1) to produce a monophase. Bligh and Dyer extractions were then performed as described.

plasmid DNA [3] = experiment: Agarose gel electrophoresis: DNA mobility; assay type: physicochemical
Description: Complexes involving plasmid and poly-L-lysine were formed at a nucleic acid concentration of 10 µg/mL and a 1:1 charge ratio in the presence of 100 mM OGP. Complexes involving the cationic lipid DODAC and plasmid were formed at a plasmid concentration of 10 µg/mL and increasing concentrations of DODAC (10 to 320 nmoles/mL). The mixtures were incubated at room temperature for 30 min prior to loading onto a 0.8% agarose gel. Electrophoresis was carried out in TBE buffer according to standard techniques (Sambrook, et al., Molecular Cloning: A Laboratory Manual, Second Edition, Cold Spring Harbor, N.Y. (1989)). Nucleic acids were visualized after staining the gel with ethidium bromide ([…], 20 min) by photography with UV transillumination.

plasmid DNA [4] = experiment: TO-PRO-1 dye intercalation assay (DNA condensation); assay type: physicochemical; conditions: Bligh and Dyer monophase; 1 μM TO-PRO-1; 533 nm
Description: The fluorochrome TO-PRO-1 was used to evaluate the state of condensation of the plasmid in the charge-neutralized lipid-nucleic acid complex. TO-PRO-1 was used in this study due to its stable intercalation into the plasmid as well as the high sensitivity in the fluorescence detection compared with the more common intercalator ethidium bromide (see, Hirons, et al., Cytometry 15:129-140 (1994)). Plasmid was dissolved in either the Bligh and Dyer monophase or in 100 mM OGP. Poly-L-lysine or DODAC were each added to 10 g plasmid at a 1:1 charge ratio.
Evaluation of the hydrophobic, charge-neutralized lipid-nucleic acid complexes was carried out by assessing the ability of a small fluorescent probe to bind to the nucleic acid in the complex. […] TO-PRO-1 was then added to a final concentration of 1 μM and fluorescence was measured at 533 nm (probe excitation at 509 nm). […] However, when plasmid DNA was added (10 μg/mL) there was a >600 fold increase in fluorescence at 533 nm. […]
The fluorochrome (TO-PRO-1) was used to evaluate the state of condensation of the DNA in the lipid-nucleic acid particle. […] To measure fluorescence, spectrofluorometric measurements were performed using a Luminescence Spectrometer 50B (Perkin Elmer Ltd., Buckinghamshire, England) with an excitation wavelength of 509 nm and an emission wavelength of 533 nm. […]

plasmid DNA [5] = conditions: DNA condensed by addition of polylysine (Reimer et al., 1995); cited from earlier work

Compound: 1-O-(2′-(ω-methoxypolyethyleneglycol)succinoyl)-2-N-myristoyl-sphingosine [PEG-C14]
- PEG-C14 concentration giving best entrapment ([1]; 7.5% DODAC and DOPE, dialysis method): 10 mol %

Compound: CCCCCCCCCCCCCCOCC(C[N+](C)(C)CCO)OCCCCCCCCCCCCCC.[Br-] (stereo not drawn) [DMRIE, N-(1,2-dimyristyloxyprop-3-yl)-N,N-dimethyl-N-hydroxyethyl ammonium bromide]
- cationic lipid concentration required for optimal plasmid encapsulation [1]: 8%

Compound: CCCCCCCC/C=C\CCCCCCCC[N+](C)(C)CCCCCCCC/C=C\CCCCCCCC.[Cl-] [DODAC, N,N-dioleyl-N,N-dimethylammonium chloride]
- cationic lipid concentration required for optimal plasmid encapsulation [1]: 8%
- DNA partitioned into the organic phase (plasmid DNA [2]; 10 μg DNA, 40 nmoles DODAC, OGP up to 20 mM): greater than 99%
- DNA mobility in agarose gel (plasmid DNA [3]; addition of 320 nmoles of DODAC): decrease in DNA migrating into the gel

Compound: CCCCCCCCCCCCCCCCCCN(CCCCCCCCCCCCCCCCCC)C(=O)CNC(=O)C(CCCNCCCN)NCCCN (stereo not drawn) [DOGS]
- amount of lipid for complete partitioning of the DNA into the organic phase (plasmid DNA [2]; 10 μg DNA): approximately 10 nmoles
- DNA partitioning into the organic phase versus charge ratio (plasmid DNA [2]): a slightly greater charge ratio was required

Compound: CCCCCCCC/C=C\CCCCCCCCOCC(C[N+](C)(C)CCNC(=O)C(CCCNCCCN)NCCCN)OCCCCCCCC/C=C\CCCCCCCC.O=C([O-])C(F)(F)F (stereo not drawn) [DOSPA, N-(-(2,3-dioleyloxy)propyl)-N-(2-(sperminecarboxamido)ethyl)-N,N-dimethylammonium trifluoroacetate]
- amount of lipid for complete partitioning of the DNA into the organic phase (plasmid DNA [2]; 10 μg DNA): approximately 10 nmoles
- stability of complex in presence of NaCl (plasmid DNA [2]; Na+ in a 300-fold molar excess): did not cause partitioning
- DNA partitioning into the organic phase versus charge ratio (plasmid DNA [2]): a slightly greater charge ratio was required

Compound: CCCCCCCC/C=C\CCCCCCCCOCC(C[N+](C)(C)C)OCCCCCCCC/C=C\CCCCCCCC.[Cl-] (stereo not drawn) [DOTMA, N-(1-(2,3-dioleyloxy)propyl)-N,N,N-trimethylammonium chloride]
- cationic lipid concentration required for optimal plasmid encapsulation [1]: 6.5%

Compound: CCCCCCCCCCCCCCCCCC[N+](C)(C)CCCCCCCCCCCCCCCCCC.[Cl-] [DSDAC]
- cationic lipid concentration required for optimal plasmid encapsulation [1]: 6.5%

Compound: [Ca+2].[Cl-].[Cl-] [calcium, calcium chloride]
- DNA partitioning (plasmid DNA [2]): majority of the DNA was invariably recovered in the aqueous phase

Compound: NCCCC[C@H](N)C(=O)O [lysine, L-lysine]
- DNA partitioning (plasmid DNA [2]): majority of the DNA was invariably recovered in the aqueous phase

Compound: poly L-lysine hydrobromide [poly-L-lysine]
- DNA partitioning (plasmid DNA [2]): majority of the DNA was invariably recovered in the aqueous phase
- TO-PRO-1 fluorescence / binding to DNA (plasmid DNA [4]): no fluorescence was observed
- DNA mobility in agarose gel (plasmid DNA [3]; 1:1 charge ratio, 100 mM OGP): significantly reduced mobility
- condensation index (plasmid DNA [5]): ≈ 1.0
